Assay results from ChEMBL document CHEMBL1128033, “Design and synthesis of new leads for PKC bisubstrate inhibitors” (Bioorg Med Chem Lett, 1994).

Key:
Protein kinase C (PKC) = assay: Inhibition of protein kinase C (PKC) using histone III S protein; type: protein assay
[1] = target: cAMP-dependent protein kinase (PKA) (Homo sapiens, UniProt P22694+P17612+P22612); assay: Inhibition of c-AMP dependent kinase (PKA) using histone II A protein; type: protein assay

IC50 (Protein kinase C (PKC)) [µM] | IC50 [1] [µM] | Compound
60 | – | NC(N)=NCCCC(N)C(=O)NCCCCCNC1=C(c2cc3ccccc3[nH]2)C(=O)NC1=O (stereo not drawn)
40 | 50 | NCCCCCCNC1=C(c2cc3ccccc3[nH]2)C(=O)NC1=O
5 | 150 | NCCCCCCCNC1=C(c2cc3ccccc3[nH]2)C(=O)NC1=O
8 | 210 | NC(N)=NCCCC(N)C(=O)NCCNCCCCCNC1=C(c2cc3ccccc3[nH]2)C(=O)NC1=O (stereo not drawn)
105 | 390 | NC(CCC(=O)O)C(=O)NCCCCCNC1=C(c2cc3ccccc3[nH]2)C(=O)NC1=O (stereo not drawn)
120 | – | NC(Cc1ccccc1)C(=O)NCCCCCNC1=C(c2cc3ccccc3[nH]2)C(=O)NC1=O (stereo not drawn)
110 | > 500 | NCCNCCCCCNC1=C(c2cc3ccccc3[nH]2)C(=O)NC1=O

Second part, the compound before the results:

Compound | IC50 (Protein kinase C (PKC)) [µM] | IC50 [1] [µM]
C[C@H]1CNCCN1S(=O)(=O)c1cccc2cnccc12 | 6 | –
NCCCNCCCNC1=C(c2cc3ccccc3[nH]2)C(=O)NC1=O | 100 | 390
NCCNCCNC1=C(c2cc3ccccc3[nH]2)C(=O)NC1=O | 120 | 310
NCCNC1=C(c2cc3ccccc3[nH]2)C(=O)NC1=O | 90 | 100
NCCCCCNC1=C(c2cc3ccccc3[nH]2)C(=O)NC1=O | 8 | 300
NC(Cc1ccccc1)C(=O)NCCNCCCCCNC1=C(c2cc3ccccc3[nH]2)C(=O)NC1=O (stereo not drawn) | 95 | 120
